This is an account of results in US11970448B2, “Monomers capable of dimerizing in an aqueous solution, and methods of using same” (CORNELL UNIVERSITY, priority 2011, dated 2024).

Read-outs that look alike come from different tables or passages of the source.

In the assay the target is T1, recominbant human tryptase, beta, from lung (Homo sapiens, UniProt P20231).
T1 construct: purchased Promega or Enzo Life Sciences G5631 or BML-SE418
As to the kind of experiment: Inhibition of tryptase activity by monomers and multimers (Boc-Gln-Ala-Arg-AMC fluorescence). Type of assay: biochemical. Conditions: monomers against tryptase. The method, then:
Stock solutions of recominbant human tryptase, beta, from lung (Promega: catalog number G5631, or Enzo Life Sciences: catalog number BML-SE418) were made at 30 μM, in solution with 5 μM heparin sulfate and 1 M NaCl. Monomer tryptase inhibitor stock solutions were made at 50 mM in DMSO. Test substance plates were made at 1.2× the final concentration in assay buffer (50 mM HEPES, 150 mM NaCl, 100 μM EDTA, pH 7.4, 0.02% Tween-20). A final concentration of 1 nM tryptase was used. When required, test substances were diluted in water immediately before use in 10-fold serial dilutions. After the indicated incubation time, the test subtance-tryptase solution at 1.2× concentration, was diluted into assay buffer containing a final concentration of 200 μM N-tert-butoxycarbonyl-Gln-Ala-Arg-AMC HBr [AMC=7-amino-4-methylcoumarin] (Boc-Gln-Ala-Arg-AMC; Enzo Life Sciences: catalog number BML-P237) to a final volume of 50 μl in black opaque round bottom 96 well plates (Corning, catalog number 3792). The release of fluorescent AMC was immediately measured every 30 seconds over 15-30 minutes at an excitation wavelength of 367 nm, monitoring emission at 468 nm on a Spectramax M5 (Molecular Devices) microplate reader. The Softmax Pro (Molecular Devices) and Graphpad prism software were used to determine Vmax, and concentration-response curve IC50s, respectively.

Where [1] appears, read: Table 5, read-out: Monomer IC50 range.
Where [2] appears, read: read-out: IC50 range group of additional monomers (boronic acid, benzooxaborole, ligands).
Where [3] appears, read: entry marked (1:10), read-out: IC50 range group of additional monomers marked (1:10).

T1 sequence (P20231 31-275): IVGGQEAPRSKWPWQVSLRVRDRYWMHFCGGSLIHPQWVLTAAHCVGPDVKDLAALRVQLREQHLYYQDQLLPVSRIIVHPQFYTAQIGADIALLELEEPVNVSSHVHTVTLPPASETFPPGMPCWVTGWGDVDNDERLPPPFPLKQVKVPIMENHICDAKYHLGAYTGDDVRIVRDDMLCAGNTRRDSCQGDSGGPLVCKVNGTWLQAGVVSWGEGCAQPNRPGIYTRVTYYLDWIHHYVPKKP

Consider `NCc1cccc(C2CCN(C(=O)/C=C/c3cc(O)c(O)c(O)c3)CC2)c1` [T43, (E)-1-(4-(3-(aminomethyl)phenyl)piperidin-1-yl)-3-(3,4,5-trihydroxyphenyl)prop-2-en-1-one], for which the IC50 lay within 0.1 to 1000 nM under setting [1] and 0.1 to 1000 nM under setting [2].

For `NCc1cccc(C2CCN(C(=O)c3cccc4cc(CO)c(O)cc34)CC2)c1` [T44, (4-(3-(aminomethyl)phenyl)piperidin-1-yl)(7-hydroxy-6-(hydroxymethyl)naphthalen-1-yl)methanone], the IC50 under setting [1] lay within 1000 to 10000 nM and the half-maximal inhibitory concentration (IC50) under setting [2] lay within 1000 to 10000 nM. Take `NCc1cccc(C2CCN(C(=O)c3ccc(B(O)O)c4cccnc34)CC2)c1` [T51]: the 50% inhibitory concentration (IC50) under setting [2] fell in the range of 10000 to 65000 nM.

For `NCc1cccc(C2CCN(C(=O)c3cccc(OCCC(=O)N4C[C@@H](O)[C@@H](O)C4)c3)CC2)c1` [T53, 3-(3-(4-(3-(aminomethyl)phenyl)piperidine-1-carbonyl)phenoxy)-1-((3S,4R)-3,4-dihydroxypyrrolidin-1-yl)propan-1-one], the IC50 is, setting by setting: under setting [1], 0.1 to 1000 nM; under setting [2], 0.1 to 1000 nM. With `NCc1cccc(C2CCN(C(=O)c3cccc(O)c3)CC2)c1` [T53B, (4-(3-(aminomethyl)phenyl)piperidin-1-yl)(3-hydroxyphenyl)methanone], the concentration for half-maximal inhibition (IC50) under setting [1] lay within 1000 to 10000 nM. The same measure, in the same setting: for `NCc1cccc(C2CCN(C(=O)Cc3ccc(O)c(F)c3)CC2)c1` [T54A, 1-(4-(3-(aminomethyl)phenyl)piperidin-1-yl)-2-(3-fluoro-4-hydroxyphenyl)ethanone] the value was 1000 to 10000 nM. For `NCc1ccc2c(c1)C1(CCN(C(=O)Cc3ccc(B(O)O)c(F)c3)CC1)CO2` [T54BASPIRO], under setting [2], the IC50 is 1000 to 10000 nM. Turning to `NCc1cccc(C2CCN(C(=O)Cc3ccc(B(O)O)c(F)c3)CC2)c1` [T54BA], the concentration for half-maximal inhibition (IC50) under setting [2] lay within 1000 to 10000 nM.

As for `CC(C)(C)OC(=O)NCc1cccc(C2CCN(C(=O)c3cccc(NC(=O)C(=O)C(C)(C)O)c3)CC2)c1` [T55, tert-butyl 3-(1-(3-(3-hydroxy-3-methyl-2-oxobutanamido)benzoyl)piperidin-4-yl)benzylcarbamate], under setting [1], the IC50 was 0.1 to 1000 nM. As to `CC(C)(C)OC(=O)NCc1cccc(C2CCN(C(=O)c3cccc(NC(=O)C(O)C(C)(C)O)c3)CC2)c1` (centres unmarked) [T55D, tert-butyl 3-(1-(3-(2,3-dihydroxy-3-methylbutanamido)benzoyl)piperidin-4-yl)benzylcarbamate], the IC50 under setting [1] was 0.1 to 1000 nM and the IC50 under setting [3] fell in the range of 0.1 to 1000 nM. With `NCc1cccc(C2CCN(C(=O)c3cc4c(B(O)O)cccc4s3)CC2)c1` [T56, 2-(4-(3-(aminomethyl)phenyl)piperidine-1-carbonyl)benzo[b]thiophen-4-ylboronic acid], the IC50 by setting is: under setting [1], 0.1 to 1000 nM; under setting [2], 0.1 to 1000 nM. `NCc1cccc(C2CCN(C(=O)c3cc4c(Br)cccc4s3)CC2)c1` [T56A, (4-(3-(aminomethyl)phenyl)piperidin-1-yl)(4-bromobenzo[b]thiophen-2-yl)methanone]: the IC50 under setting [1] was 0.1 to 1000 nM.

Consider `NCc1cccc(C2CCN(C(=O)Cc3cc(B(O)O)ccc3F)CC2)c1` [T57, 3-(2-(4-(3-(aminomethyl)phenyl)piperidin-1-yl)-2-oxoethyl)-4-fluorophenylboronic acid], for which the concentration for half-maximal inhibition (IC50) by setting is: under setting [1], 1000 to 10000 nM; under setting [2], 1000 to 10000 nM. Turning to `NCc1cccc(C2CCN(C(=O)Cc3ccc(B(O)O)cc3F)CC2)c1` [T58, 4-(2-(4-(3-(aminomethyl)phenyl)piperidin-1-yl)-2-oxoethyl)-3-fluorophenylboronic acid], the half-inhibitory concentration (IC50) reads like this: under setting [1], 1000 to 10000 nM; under setting [2], 1000 to 10000 nM. Turning to `NCc1cccc(C2CCN(C(=O)c3cc4ccc(B(O)O)cc4[nH]3)CC2)c1` [T59, 2-(4-(3-(aminomethyl)phenyl)piperidine-1-carbonyl)-1H-indol-6-ylboronic acid], the 50% inhibitory concentration (IC50) by setting is: under setting [1], 1000 to 10000 nM; under setting [2], 1000 to 10000 nM.

As to `NCc1cccc(C2CCN(C(=O)c3ccc(O)c(CO)c3)CC2)c1` [T65, (4-(3-(aminomethyl)phenyl)piperidin-1-yl)(4-hydroxy-3-(hydroxymethyl)phenyl)methanone], the concentration for half-maximal inhibition (IC50) reads like this: under setting [1], 0.1 to 1000 nM; under setting [2], 0.1 to 1000 nM. Consider `NCc1cccc(C2CCN(C(=O)c3ccc(O)c(C(N)=O)c3)CC2)c1` [T66, 5-(4-(3-(aminomethyl)phenyl)piperidine-1-carbonyl)-2-hydroxybenzamide], for which the IC50 runs as follows: under setting [1], 0.1 to 1000 nM; under setting [2], 0.1 to 1000 nM. Take `CC1(O)CN(c2cccc(C(=O)N3CCC(c4cccc(CN)c4)CC3)c2)CC1(C)O` (centres unmarked) [T67, (4-(3-(aminomethyl)phenyl)piperidin-1-yl)(3-(3,4-dihydroxy-3,4-dimethylpyrrolidin-1-yl)phenyl)methanone]: the half-inhibitory concentration (IC50) lay within 0.1 to 1000 nM under setting [1] and 0.1 to 1000 nM under setting [2]. Consider `NCc1cccc(C2CCN(C(=O)c3ccc(O)c(O)c3O)CC2)c1` [T68, (4-(3-(aminomethyl)phenyl)piperidin-1-yl)(2,3,4-trihydroxyphenyl)methanone], for which the concentration for half-maximal inhibition (IC50) under setting [1] is 1000 to 10000 nM and the IC50 under setting [2] lay in the range of 1000 to 10000 nM. For the compound `NCc1cccc(C2CCN(C(=O)c3cc(O)c(O)c(O)c3)CC2)c1` [T69, (4-(3-(aminomethyl)phenyl)piperidin-1-yl)(3,4,5-trihydroxyphenyl)methanone], the IC50 lay in the range of 1000 to 10000 nM under setting [1] and 1000 to 10000 nM under setting [2]. On to `NCc1cccc(C2CCN(C(=O)c3cccc(NC(=O)c4cccc(O)c4O)c3)CC2)c1` [T70, N-(3-(4-(3-(aminomethyl)phenyl)piperidine-1-carbonyl)phenyl)-2,3-dihydroxybenzamide], for which the IC50 by setting is: under setting [1], 0.1 to 1000 nM; under setting [2], 0.1 to 1000 nM. Consider `NCc1cccc(C2CCN(C(=O)c3cccc(NC(=O)c4ccc(O)c(O)c4)c3)CC2)c1` [T71, N-(3-(4-(3-(aminomethyl)phenyl)piperidine-1-carbonyl)phenyl)-3,4-dihydroxybenzamide], for which the half-inhibitory concentration (IC50) lay in the range of 0.1 to 1000 nM under setting [1] and 0.1 to 1000 nM under setting [2].

`CC(O)(COc1cccc(C(=O)N2CCC(c3cccc(CN)c3)CC2)c1)C(=O)O` (centres unmarked) [T72, 3-(3-(4-(3-(aminomethyl)phenyl)piperidine-1-carbonyl)phenoxy)-2-hydroxy-2-methylpropanoic acid]: the IC50 is, setting by setting: under setting [1], 0.1 to 1000 nM; under setting [2], 0.1 to 1000 nM. On to `NCc1cccc(C2CCN(C(=O)c3cccc(OCC(O)(C(=O)O)c4ccccc4)c3)CC2)c1` (centres unmarked) [T73, 3-(3-(4-(3-(aminomethyl)phenyl)piperidine-1-carbonyl)phenoxy)-2-hydroxy-2-phenylpropanoic acid], for which the IC50 is, setting by setting: under setting [1], 0.1 to 1000 nM; under setting [2], 0.1 to 1000 nM. Regarding `NCc1cccc(C2CCN(C(=O)c3ccc(CO)c(O)c3)CC2)c1` [T74, (4-(3-(aminomethyl)phenyl)piperidin-1-yl)(3-hydroxy-4-(hydroxymethyl)phenyl)methanone], the IC50 under setting [1] lay in the range of 0.1 to 1000 nM and the IC50 under setting [3] was in the range of 0.1 to 1000 nM.

As to `NCc1ccc2c(c1)C1(CCN(C(=O)c3ccc(CO)c(O)c3)CC1)CO2` [T74SPIRO], under setting [2], the IC50 was 0.1 to 1000 nM.

In the case of `NCc1cccc(C2CCN(C(=O)c3ccc(C(N)=O)c(O)c3)CC2)c1` [T75, 4-(4-(3-(aminomethyl)phenyl)piperidine-1-carbonyl)-2-hydroxybenzamide], the IC50 under setting [1] is 1000 to 10000 nM and the half-maximal inhibitory concentration (IC50) under setting [2] was 1000 to 10000 nM. In the case of `CONC(=O)c1ccc(C(=O)N2CCC(c3cccc(CN)c3)CC2)cc1O` [T75A, 4-(4-(3-(aminomethyl)phenyl)piperidine-1-carbonyl)-2-hydroxy-N-methoxybenzamide], the IC50 was 0.1 to 1000 nM under setting [1] and 0.1 to 1000 nM under setting [2]. Take `CC(C)(C)ONC(=O)c1ccc(C(=O)N2CCC3(CC2)COc2ccc(CN)cc23)cc1O` [T75AOTBSPIRO]: the IC50 under setting [2] was 0.1 to 1000 nM.

As for `CC(C)(C)ONC(=O)c1ccc(C(=O)N2CCC(c3cccc(CN)c3)CC2)cc1O` [T75AOTB], the concentration for half-maximal inhibition (IC50) under setting [2] was in the range of 1000 to 10000 nM.

Turning to `NCc1ccc2c(c1)C1(CCN(C(=O)c3ccc(C(=O)NOc4ccccc4)c(O)c3)CC1)CO2` [T75APSPIRO], the IC50 under setting [2] was 0.1 to 1000 nM. Take `NCc1cccc(C2CCN(C(=O)c3ccc(C(=O)NOc4ccccc4)c(O)c3)CC2)c1` [T75AP]: the IC50 under setting [3] was 0.1 to 1000 nM. Still for that read-out and setting: as for `CONC(=O)c1ccc(C(=O)N2CCC3(CC2)COc2ccc(CN)cc23)cc1O` [T75ASPIRO], the figure is 0.1 to 1000 nM. Regarding `NCc1cccc(C2CCN(C(=O)/C=C/c3ccc(C(N)=O)c(O)c3)CC2)c1` [T76, (E)-4-(3-(4-(3-(aminomethyl)phenyl)piperidin-1-yl)-3-oxoprop-1-enyl)-2-hydroxybenzamide], the IC50 was in the range of 0.1 to 1000 nM under setting [1] and 0.1 to 1000 nM under setting [2]. For the compound `CONC(=O)c1ccc(/C=C/C(=O)N2CCC(c3cccc(CN)c3)CC2)cc1O` [T76A, (E)-4-(3-(4-(3-(aminomethyl)phenyl)piperidin-1-yl)-3-oxoprop-1-enyl)-2-hydroxy-N-methoxybenzamide], the IC50 is 0.1 to 1000 nM under setting [1] and 0.1 to 1000 nM under setting [2]. For the compound `NCc1cccc(C2CCN(C(=O)c3cc(O)c(O)cc3O)CC2)c1` [T77, (4-(3-(aminomethyl)phenyl)piperidin-1-yl)(2,4,5-trihydroxyphenyl)methanone], the IC50 under setting [1] was in the range of 10000 to 65000 nM and the IC50 under setting [2] lay in the range of 10000 to 65000 nM.

A word on the IC50: it is the concentration that gives 50% inhibition.
